Reference: patent publication US20260000642A1 (Tay Therapeutics Limited, priority 2022, published 2026)
Several values for one entry are separate records, joined by “and”; a condition that tells them apart may be missing. Equal entries are not always repeated.

Legend:
[1] = test system: rat anti-collagen IgG1 antibodies; assay: CIA model: rat anti-collagen IgG1 antibodies in serum at day 21; format: in vivo, Lewis rat; settings: for levels of rat anti-collagen IgG1 antibodies relative to CIA without treatment: day 21
Protocol: Blood was additionally collected from groups 1-7 via cardiac puncture following euthanasia on Day 21. Blood from cardiac puncture was placed in a 1.5 mL centrifuge tube without an anticoagulant and centrifuged at 8000 rcf for 15 minutes. Serum was divided into two separate tubes and stored at −75±15° C. One tube was used to analyze IgG1, and the other tube was reserved for additional analyses.
All data measured and recorded was analyzed using SPSS 16.0 software. Groups were compared using one-way ANOVA and significance was set at p<0.05.

[2] = test system: collagen-induced arthritis in Lewis rats; assay: CIA model: histopathologic analysis of H&E-stained hind limbs; format: in vivo, Lewis rat
Description: Hind limbs were collected following euthanasia, with the left limb being used for H&E staining.
H&E-stained slides of designated tissues from animals were transferred to an independent pathologist for microscopic evaluation (SPFBio). Samples were assigned the histologic grades based on the severity of change from tissue where CIA was not induced. Histology grades assigned were as follows: grade 1 (minimal change), grade 2 (mild change), grade 3 (moderate change), grade 4 (marked change), and grade 5 (severe change).
Moderate inflammation was also associated with increased edema fluid, fibrin, and cellular debris. Marked mixed cell inflammation was characterized by dense, widespread accumulations of neutrophils and macrophages with lesser number of lymphocytes within one or more joint spaces, synovium and periarticular soft tissues. Marked inflammation was also associated with abundant edema fluid, fibrin, and cellular debris.
Marked granulation tissue (pannus) was associated with inflammation and was characterized by widespread fibrovascular connective tissue that expanded/replaced the periarticular soft tissues of one or more joints, extended into/expanded joint spaces, was contiguous with areas of erosion/ulcer in articular cartilage and/or increased eroded surface of bone, and variably extended along the diaphysis.
Instances of minimal increased eroded surface were not associated with fragments of bone contiguous and/or surrounded by granulation tissue. […] In some areas, increased eroded surfaces were contiguous with areas of erosion/ulcer in the articular cartilages. Instance of marked increased eroded surface were often associated with fragments of bone contiguous with and/or surrounded by granulation tissue.
This observation was typically most pronounced at joint margins (transition zone). The ulceration was often associated with inflammation and granulation tissue extending through the defect to the subchondral bone.
Marked increased periosteal bone (periosteal bone formation) was characterized by extensive areas of increased bone matrix and numerous prominent osteoblasts lining trabecular surfaces along the metaphysis and/or diaphysis of one or more bones. In some areas, increased periosteal bone was contiguous with increased eroded surface and/or erosion/ulcer at articular cartilage.

[3] = CIA rats, 30 mg/kg (Group 7), seven of eight samples
[4] = hind limbs, CIA induced, 8 animals examined, comparator groups 3-4, dose not given

In the case of CNC(=O)c1[nH]c(C(=O)NC2CCC2)cc1O[C@@H](C)c1ccccc1 [Example 101, N^5-cyclobutyl-N^2-methyl-3-(1-phenylethoxy)-1H-pyrrole-2,5-dicarboxamide], the “levels of rat anti-collagen IgG1 antibodies relative to CIA without treatment” value ([1]; 1 mg/kg, p<0.05) is reported as “significantly decreased”, the “levels of rat anti-collagen IgG1 antibodies relative to CIA without treatment” value ([1]; 10 mg/kg, p<0.05) is reported as “significantly decreased” and the “levels of rat anti-collagen IgG1 antibodies relative to CIA without treatment” value ([1]; 30 mg/kg, p<0.01) is reported as “significantly decreased”. For the same molecule, the “articular cartilage erosion or ulcers” value ([2]; CIA rats, 3 mg/kg (Group 5)) was “mild to moderate”, the “granulation tissue (pannus)” value ([2]; CIA rats, 3 mg/kg (Group 5)) was “mild to moderate” and the “increased eroded surface of bone (bone resorption)” value (“increased eroded surface of bone” for short) ([2]; CIA rats, 3 mg/kg (Group 5)) was “mild to moderate”. For the same molecule, the “increased periosteal bone (periosteal bone formation)” value (“increased periosteal bone” for short) ([2]; CIA rats, 3 mg/kg (Group 5)) was “mild to moderate”, the mixed cell inflammation ([2]; CIA rats, 3 mg/kg (Group 5)) was “moderate to marked” and the “erosion in the articular cartilages” value ([2]; CIA rats, 10 mg/kg (Group 6)) was “moderate”. For the same molecule, the “granulation tissue (pannus)” value ([2]; CIA rats, 10 mg/kg (Group 6)) was “moderate”, the “increased eroded surface of bone” value ([2]; CIA rats, 10 mg/kg (Group 6)) was “moderate” and the “increased periosteal bone” value ([2]; CIA rats, 10 mg/kg (Group 6)) was “moderate”. For the same molecule, the mixed cell inflammation ([2]; CIA rats, 10 mg/kg (Group 6)) was “moderate”, the “samples with no recorded pathological observations” value ([2]; CIA rats, 30 mg/kg (Group 7)) was “One out of eight samples” and the “erosion in the articular cartilages” value [2, 3] was “mild”. For the same molecule, the “granulation tissue (pannus)” value [2, 3] was “moderate”, the “increased eroded surface of bone” value [2, 3] was “mild” and the “increased periosteal bone” value [2, 3] was “mild”. The mixed cell inflammation [2, 3] was “moderate”, the “pathologic observations after microscopic evaluation (overall)” value ([2]; CIA rats, Groups 5-7 (3, 10, 30 mg/kg)) was “at lower levels relative to samples from animals in the CIA-induced group (Group 2) in a dose-dependent manner” and the “Erosion/Ulcer, cartilaginous, Mild, number of animals” value ([2]; hind limbs, CIA induced, 8 animals examined, 30 mg/kg (Group 7)) was 4.
C[C@@H]1C[C@H]2[C@@H]3CCC4=CC(=O)C=C[C@]4(C)[C@@]3(F)[C@@H](O)C[C@]2(C)[C@@]1(O)C(=O)CO [dexamethasone] was tested, and the “Rat Anti-Collagen IgG1 Antibody Con.” value ([1]; day 21 serum, reference group (Dexamethasone or GSK620), before fold 2000 correction, individual animals) was 11.01 units/ml and 2.63 units/ml and 0.65 units/ml and 1.27 units/ml and 5.87 units/ml and 2.28 units/ml and 3.96 units/ml and 3.67 units/ml, the “Final Rat Anti-Collagen IgG1 Antibody Con.” value ([1]; day 21 serum, reference group (Dexamethasone or GSK620), individual animals) was 22019.88 units/ml and 5250.27 units/ml and 1296.14 units/ml and 2541.14 units/ml and 4553.59 units/ml and 7925.50 units/ml and 7346.16 units/ml and the “Erosion/Ulcer, cartilaginous, Marked, number of animals” value [2, 4] was 0. For the same molecule, the “Erosion/Ulcer, cartilaginous, Mild, number of animals” value [2, 4] was 0, the “Erosion/Ulcer, cartilaginous, Minimal, number of animals” value [2, 4] was 0 and the “Erosion/Ulcer, cartilaginous, Moderate, number of animals” value [2, 4] was 0. For the same molecule, the “Granulation tissue, Marked, number of animals” value [2, 4] was 0, the “Granulation tissue, Mild, number of animals” value [2, 4] was 0 and the “Granulation tissue, Minimal, number of animals” value [2, 4] was 0. The “Granulation tissue, Moderate, number of animals” value [2, 4] was 0, the “Increased bone, periosteum, Marked, number of animals” value [2, 4] was 0 and the “Increased bone, periosteum, Mild, number of animals” value [2, 4] was 0. For the same molecule, the “Increased bone, periosteum, Minimal, number of animals” value [2, 4] was 0, the “Increased bone, periosteum, Moderate, number of animals” value [2, 4] was 0 and the “Increased eroded surface, bone, Marked, number of animals” value [2, 4] was 0. The “Increased eroded surface, bone, Mild, number of animals” value [2, 4] was 0, the “Increased eroded surface, bone, Minimal, number of animals” value [2, 4] was 0 and the “Increased eroded surface, bone, Moderate, number of animals” value [2, 4] was 0. The “Mixed cell inflammation, Marked, number of animals” value [2, 4] was 0, the “Mixed cell inflammation, Mild, number of animals” value [2, 4] was 0 and the “Mixed cell inflammation, Minimal, number of animals” value [2, 4] was 0. The “Mixed cell inflammation, Moderate, number of animals” value [2, 4] was 0 and the “No Visible Lesions, number of animals” value [2, 4] was 8.
